Laboratory results: patent publication US8569017B2, “Method for the preventing and/or treating IL-1 beta lung pathology in mammals by administering a uric acid reducing compound” (Centre National de la Recheche Scientifique (CNRS), priority 2008, dated 2013)
Entries after “also recorded” stand apart in the source; their conditions may differ.

Legend:
[1] = tested on: lung inflammation upon intranasal crystals; experiment: Exogenous uric acid crystals-induced lung inflammation and remodeling in mice; format: in vivo
Procedure: (§1) Bleomycin sulfate (200-300 μg or 10-15 mg/kg) from Bellon Laboratories (Montrouge, France) in saline, uric acid or allopurinol crystals (100-1000 μg or 5-50 mg/kg) in saline or saline alone are given through the airways by nasal instillation in a volume of 40 μt, under light ketamine-xylasine anaesthesia. The number of cells, chemokines, cytokines and TIMP-1 in the bronchoalveolar space and in the lung were evaluated as described (3). Allopurinol (Sigma-Aldrich) was injected at 500 μg or 25 mg/kg subcutaneously in 0.1-ml sterile NaCl, uricase (Fasturtec, Sanofi Synthelabo) given at 4 μg or 0.2 mg/kg by nasal instillation in 40 μt, at the time of bleomycin administration, at 6 and 9 h. In some experiments, the IL-1Ra (Anakinra, Amgen) was injected at 200 μg or 10 mg/kg subcutaneously in 0.1-ml sterile NaCl, at the time of MSU crystals administration, at 2 and 4 h.
Uric acid or allopurinol crystals were obtained by dissolving 1.68 mg of powder in 0.01 M NaOH preheated to 70° C. and added as required to maintain pH between 7.1 and 7.2. The solution was filtered and incubated at room temperature under slowly and continuously agitation, until crystals have formed. Crystals were washed twice with ethanol 100%, dried, autoclaved and kept sterile. The weight of dry crystals was determined under sterile conditions, crystals are resuspended in PBS by sonication and examined under phase microscopy.
(§2) Bleomycin sulfate (10 mg/kg) from Bellon Laboratories, uric acid or allopurinol crystals (5-50 mg/kg) in saline or vehicle alone were administered by intranasal instillation under light ketamine-xylasine anesthesia, and BAL and lung tissue assayed after 6 h (for uric acid crystal) or 24 h (for bleomycin) for markers of inflammation including cell recruitment and in particular neutrophil influx, chemokine and cytokine levels including KC, IL-6 and IL-1β and 14 days later for markers of tissue remodeling such as gelatinases MMP9 and MMP2 and their inhibitor TIMP-1. […] IL-1Ra (Anakinra, Amgen) was injected at 10 mg/kg subcutaneously.
(§3) After incision of the trachea, a plastic cannula was inserted and airspaces were washed using […] of PBS solution, heated to 37° C. The rib cage was then gently massaged to enable maximum cell collection. The fluid was collected by careful aspiration. […] The samples collected were dispatched in 2 fractions: the first one (1 ml corresponding to the 2 first lavages) was used for mediator measurement and the second one for the cell determination (4 ml). The first fraction was centrifuged (600 g for 10 min) and supernatant was fractionated and kept at −80° C. until mediator determination. The cell pellet was then resuspended in 0.4 ml PBS and, pooled with the second fraction and maintained at 4° C. until cell determination.
(§4) Total cell count was determined in BAL fluid using a particle counter (Z2 Coulter, Beckman Coulter). Differential cell counts were performed on cytospin preparations (Cytospin 3, Thermo Shandon) after staining with 4 min May-Grünwald stain (MG-1L, Sigma chemical, Saint Louis, USA) and 8 min in 95% Giemsa stain (GS-500, Sigma chemical, Saint Louis, USA). Differential cell counts were made on 100 cells using standard morphological criteria.
(§5) IL-1β, KC, IL-6 and TIMP-1 levels in BAL fluid or lung homogenate were determined using ELISA assay kits according to manufacturer's instructions (Mouse DuoSet, R&D system, Minneapolis, USA).

[2] = tested on: bleomycin-induced lung inflammation; experiment: Bleomycin-induced acute lung inflammation in mice (24 h); format: in vivo; conditions: for Uric acid levels in lung: allopurinol 25 mg/kg s.c. or uricase 0.2 mg/kg i.p. or i.n. at 0, 6 and 9 h; for Neutrophil recruitment in BALF / IL-1β production in lung: allopurinol 25 mg/kg s.c.; for Neutrophil recruitment in BALF: uricase 0.2 mg/kg (0, 6, 9 h) or z-YVAD-fmk 10 mg/kg i.p. (0, 4, 8 h); for Bleomycin-induced (acute) inflammation, overall: 24 h after BLM i.n., treated vs vehicle; for Efficacy, repeated administrations versus higher doses: dose optimisation; for KC production in lung / TIMP-1 production in lung / IL-1β production in lung: lung homogenates 24 h after BLM 10 mg/kg i.n.; for KC production in lung / TIMP-1 production in lung: allopurinol 25 mg/kg s.c. or z-YVAD-fmk 10 mg/kg i.p.; for IL-1β production in lung: uricase 0.2 mg/kg or z-YVAD-fmk 10 mg/kg i.p.
Procedure: as §1, §2, §3
After BAL was performed, the whole lung removed and placed inside a microtube (Lysing matrix D, Q Bio Gene, Illkrich, France) with 1 ml of PBS, total lung tissue extract was prepared using a Fastprep® system (FP120, Q Bio Gene, Illkrich, France), the extract was then centrifuged and the supernatant stored at −80° C. before mediator measurement, MPO or collagen assay with Sircol Collagen Assay (France Biochem Division, France).
as §4, §5
Uric acid concentration was determined in bronchoalveolar lavages and lung homogenates using Amplex® Red Uric Acid/Uricase Assay Kit (Molecular Probe, Eugene). Briefly, uricase catalyzes the conversion of uric acid to allantoin, hydrogen peroxide (H2O2) and carbon dioxide. In the presence of horseradish peroxidase (HRP), H2O2 reacts stoichiometrically with Amplex Red reagent to generate the red-fluorescent oxidation product, resorufin, measured spectrophotometrically.

[3] = tested on: bleomycin-induced repair and fibrosis; experiment: Bleomycin-induced late inflammation, repair and fibrosis in mice (day 8/14); format: in vivo; conditions: for Lung fibrotic score (fibrosis with thickening of alveolar septae and inflammation, semi-quantitative) / Alveolar wall destruction, collagen deposition and lung fibrosis on lung sections / Pro-MMP-9 and active MMP-2 gelatinase activities in BALF (zymography) / Pulmonary alpha-I collagen mRNA content: day 14 after BLM 5 mg/kg i.n.; for Lung fibrotic score (fibrosis with thickening of alveolar septae and inflammation, semi-quantitative): Ashcroft score, two observers, vs B6 mice; for Alveolar wall destruction, collagen deposition and lung fibrosis on lung sections: CAB staining; for Pro-MMP-9 and active MMP-2 gelatinase activities in BALF (zymography): allopurinol 15 mg/kg s.c. or uricase 0.2 mg/kg i.p.; for Pulmonary alpha-I collagen mRNA content: real time quantitative PCR
Procedure: Mice were injected at day 0 with allopurinol (15 mg/kg, s.c.), uricase (0.2 mg/kg, i.p.) or saline, at 0, 6 and 9 h after BLM instillation (5 mg/kg, i.n.) and every second days during 8 or 14 days to evaluate remodeling and fibrosis. (A) Late inflammation measured as lymphocytes and neutrophils in the BALF at day 8. […] (D) Alpha1 (I) collagen I mRNA in lung was analyzed by real time quantitative polymerase chain reaction (PCR) amplification after uricase or allopurinol treatment 14 days after BLM administration. […] Chromotrope Aniline Blue (CAB) staining, 20× and 200× magnification. (F) The lesions induced by bleomycin were assessed semi-quantitatively by two pathologists as described (see Materials and methods). […] Results are expressed as mean lung fibrotic score±SD. Data represent mean values±SD from 3 independent experiments (n=6 mice per group).
as §2, §5
MMP-2 and MMP-9 levels were determined by gelatin zymography. Briefly, non-reduced supernatant samples of BAL fluid (15 μl) and standards (161-0305, Bio-Rad, Hercule, USA) were loaded onto 7% polyacrylamide gels (wt/vol) incorporating 0.1% (wt/vol) gelatin substrate. The MMP in the gelatinolytic bands were evaluated using as references recombinant murine Pro-MMP-9 (100 Kd) and recombinant murine Pro-MMP-2 (72 Kd). Proteins were subjected to electrophoresis at 20-30 mA for 3 h. The gel was then washed twice in 2.5% Triton (vol/vol), rinsed 3 times quickly with distillated water, and placed 3 times for 20 min in distillated water. Each different wash was performed under gentle stirring. Gels were incubated overnight at 37° C. in 50 mM Tris buffer (containing 5 mM CaCl2 and 2 μM ZnCL2). […] Only these MMP were quantified.
Quantification of alpha-I collagen was described previously (26). Briefly, frozen lung samples were ground to a fine powder, and homogenized in 2 ml of Trizol reagent (In vitrogen Life technology, Paisley, UK). After vigorous shaking, chloroform was added and the samples were centrifuged at 12,000 g for 20 min. Total RNA was precipitated with isopropanol and dissolved in RNAse-free water. RNAs were reverse-transcribed into cDNA using SuperScript™^II (Invitrogen Life technologies, Paisley, UK). Real-time quantitative PCR was performed by fluorescent dye SYBR Green methodology, using SYBR Green PCR Master Mix (Applied Biosystems) and the ABI Prism 7000 apparatus (perkin-Elmer, Foster city, CA, USA).
After BAL and lung perfusion, the large lobe was fixed in 4% buffered formaldehyde for standard microscopic analysis. 3-μm sections were stained with Hematoxylin and Eosin (H&E) or Chromotrope Aniline Blue (CAB) as described previously (3). The severity of the morphological changes (infiltration by neutrophils and mononuclear cells, destruction and thickening of the alveolar septae and fibrosis) were assessed semi-quantitatively using a numeric fibrotic scale (Ashcroft score) (27).

[4] = tested on: bleomycin-induced lung inflammation; conditions: IL-1 receptor antagonist; published data (ref. 3), FIG. 1; cited from earlier work
[5] = 24 h after BLM 10 mg/kg i.n., vs vehicle
[6] = crystals 15 mg/kg i.n., kinetics

Molecule | Uric acid levels in lung [2, 5] | Neutrophil recruitment in BALF [2, 5] | Bleomycin-induced (acute) inflammation, overall [2] | Efficacy, repeated administrations versus higher doses ([2]; data not shown) | KC production in lung ([2]; vs vehicle) | TIMP-1 production in lung ([2]; vs vehicle) | IL-1β production in lung ([2]; vs vehicle) | Lung fibrotic score (fibrosis with thickening of alveolar septae and inflammation, semi-quantitative) [3] | Alveolar wall destruction, collagen deposition and lung fibrosis on lung sections [3] | Pro-MMP-9 and active MMP-2 gelatinase activities in BALF (zymography) [3] | Pulmonary alpha-I collagen mRNA content [3] | also measured
Oc1ncnc2[nH]ncc12 [allopurinol crystals, allopurinol] |  |  |  |  |  |  |  |  |  |  |  | Neutrophil recruitment into the BALF ([1]; 6 h after crystals instillation 15 mg/kg i.n.): only little neutrophil recruitment
Oc1ncnc2[nH]ncc12 [allopurinol] | prevented the increase; also recorded: prevented uric acid increases | reduced | greatly inhibited | repeated administrations were more effective than higher doses | diminished | diminished | diminished | significantly reduced | significantly reduced | significantly reduced and less | inhibited | Total cell counts in BALF ([2]; 24 h after BLM 10 mg/kg i.n., allopurinol 25 mg/kg s.c. at 0, 6 and 9 h, vs vehicle): reduced; IL-1β, KC and TIMP-1 in the BALF ([2]; after BLM, allopurinol treatment, data not shown): diminished; KC production in lung ([2]; vs vehicle, listed as Allopurinol): reduced; Late lymphocyte and neutrophil recruitment in the BALF ([3]; day 8 after BLM 5 mg/kg i.n., allopurinol 15 mg/kg s.c. at 0, 6, 9 h and every second day): reduced; Late production of TIMP-1 in lung homogenates and BALF ([3]; day 8 after BLM 5 mg/kg i.n., allopurinol 15 mg/kg s.c., BALF data not shown): inhibited
O=c1[nH]c(=O)c2[nH]c(=O)[nH]c2[nH]1 [uric acid crystals, uric acid] |  |  |  |  |  |  |  |  |  |  |  | Time at which inflammation was resolved [1, 6]: 14 days; Time of maximum of inflammation (cell recruitment in BALF) [1, 6]: 6 h; Pulmonary TIMP-1 at day 14 ([1]; day 14 after crystals, data not shown): returned to basal levels; Cell recruitment in BALF (macrophages, neutrophils) ([1]; intranasal crystals, dose response): dose-dependent cell recruitment; Pulmonary TIMP-1 ([1]; lung homogenates after i.n. increasing doses of crystals): induced pulmonary TIMP-1 expression; also recorded: dose-dependently induced
Anakinra: IL-1 receptor antagonist, IL-1Ra (Anakinra, Amgen) |  |  |  |  |  |  |  |  |  |  |  | Inflammatory response to uric acid crystals (neutrophil influx in BAL) ([1]; 6 h after UA crystals 15 mg/kg i.n., anakinra 10 mg/kg): drastically reduced; Bleomycin-induced lung inflammation, overall [4]: attenuated
z-YVAD-fmk |  | reduced | reduced |  | reduced | reduced | reduced |  |  |  |  | 
uricase: recombinant enzyme uricase (Fasturtec, Sanofi Synthelabo), degrades uric acid into soluble allantoin (protein, UniProt Q00511 2-302, looked up) Uricase: SAVKAARYGKDNVRVYKVHKDEKTGVQTVYEMTVCVLLEGEIETSYTKADNSVIVATDSIKNTIYITAKQNPVTPPELFGSILGTHFIEKYNHIHAAHVNIVCHRWTRMDIDGKPHPHSFIRDSEEKRNVQVDVVEGKGIDIKSSLSGLTVLKSTNSQFWGFLRDEYTTLKETWDRILSTDVDATWQWKNFSGLQEVRSHVPKFDATWATAREVTLKTFAEDNSASVQATMYKMAEQILARQQLIETVEYSLPNKHYFEIDLSWHKGLQNTGKNAEVFAPQSDPNGLIKCTVGRSSLKSKL | reduced | reduced |  | repeated administrations were more effective than higher doses |  |  | reduced | significantly reduced | significantly reduced | significantly reduced and less | inhibited | 
